Test results reported in paper PMC11871328 (Communications Biology, 2025).

Columns and labels:
[1] = test system: MCF-7 breast cancer cells; assay: MTT cell viability assay, MCF-7; assay type: cell-based, human; conditions: in words
[2] = in words; from earlier studies; cited from earlier work
BAG-1:HSP70 interaction = conditions: in words; from earlier studies; cited from earlier work

| SMILES | Effect on viability of MCF-7 cells [1] | Solubility in water [2] | Inhibition of BAG-1:HSP70 interaction (BAG-1:HSP70 interaction) |
| --- | --- | --- | --- |
| N=C(N)NCCC[C@H](NC(=O)CN)C(=O)N[C@@H](CCCCN)C(=O)N[C@@H](CCCCN)C(=O)N[C@@H](CCCNC(=N)N)C(=O)N[C@@H](CCCNC(=N)N)C(=O)N[C@@H](CCC(N)=O)C(=O)N[C@@H](CCCNC(=N)N)C(=O)N[C@@H](CCCNC(=N)N)C(=O)N[C@@H](CCCNC(=N)N)C(=O)N1CCC[C@H]1C(=O)N[C@@H](CCC(N)=O)C(N)=O [TAT only] | did not affect the viability of the cells | – | – |
| CCNc1ccc(-c2nc3ccc(C)cc3s2)cc1 [Thio-2, N-Ethyl-4-(6-methyl-1,3-benzothiazol-2-yl)aniline] | – | poor solubility in water | moderate inhibition |
